These are literature values, as cited in patent publication US12447051B2, “Multi-functional analgesic-releasing wound dressing” (University of Utah Research Foundation, priority 2020, dated 2025).

Data set [1] concerns Primary human dermal fibroblast cell cultures. Conditions: bupivacaine concentration of the extracts.

Consider `CCCCN1CCCCC1C(=O)Nc1c(C)cccc1C` (centres unmarked) [bupivacaine], for which the cytotoxic threshold in data set [1] is recorded as 0.5 % w/w.

Turning to poly(lactide-co-caprolactone) [PLC], the in vivo degradation entry is listed as “greater than 6 months”.
